The text below walks through data of patent US8299077B2 (Roche Palo Alto LLC, priority 2009, dated 2012).

The test system of the test is B cell receptor-mediated activation of B cells in human blood (CD69 expression). As to the kind of experiment: Inhibition of B cell activation in whole blood measured by CD69 expression. The conditions noted are these: anti-IgM stimulation, 20 h, 50% decrease of CD69-positive cells that are also CD20-positive. It is filed as cell-based. The protocol:
Inhibition of B Cell Activation in Whole Blood Measured by CD69 Expression
A procedure to test the ability of Btk inhibitors to suppress B cell receptor-mediated activation of B cells in human blood is as follows:
Human whole blood (HWB) is obtained from healthy volunteers, with the following restrictions: 24 hr drug-free, non-smokers. Blood is collected by venipuncture into Vacutainer tubes anticoagulated with sodium heparin. Test compounds are diluted to ten times the desired starting drug concentration in PBS (20×), followed by three-fold serial dilutions in 10% DMSO in PBS to produce a nine point dose-response curve. 5.5 μl of each compound dilution is added in duplicate to a 2 ml 96-well V bottom plate (Analytical Sales and Services, #59623-23); 5.5 μl of 10% DMSO in PBS is added to control and no-stimulus wells. HWB (100 μl) is added to each well, and after mixing the plates are incubated at 37 C, 5% CO2, 100% humidity for 30 minutes. Goat F(ab′)2 anti-human IgM (Southern Biotech, #2022-14) (10 μl of a 500 μg/ml solution, 50 μg/ml final concentration) is added to each well (except the no-stimulus wells) with mixing and the plates are incubated for an additional 20 hours.
At the end of the 20 hour incubation, samples are incubated with florescent-probe-labeled anti-bodies (15 μl PE Mouse anti-Human CD20, BD Pharmingen, #555623, and/or 20 ul APC Mouse anti-Human CD69, BD Pharmingen #555533) for 30 minutes, at 37 C, 5% CO2, 100% humidity. Included are induced control, unstained and single stains for compensation adjustments and initial voltage settings. Samples are then lysed with 1 ml of 1× Pharmingen Lyse Buffer (BD Pharmingen #555899), and plates are centrifuged at 1800 rpm for 5 minutes. Supernatants are removed via suction and the remaining pellets are lysed again with another 1 ml of 1× Pharmingen Lyse Buffer, and plates are spun down as before. Supernatants are aspirated and remaining pellets are washed in FACs buffer (PBS+1% FBS). After a final spin, the supernantants are removed and pellets are resuspended in 180 μl of FACs buffer. Samples are transferred to a 96 well plate suitable to be run on the HTS 96 well system on the BD LSR II flow cytometer.
Using appropriate excitation and emission wavelengths for the fluorophores used, data are acquired and percent positive cell values are obtained using Cell Quest Software. Results are initially analyzed by FACS analysis software (Flow Jo). […] The IC50 values are calculated using XLfit software version 3, equation 201.

What is called IC50 is the midpoint of a concentration-inhibition curve. A lower IC50 goes with higher potency. `Cn1cc(-c2cccc(-n3ncc4cc(C(C)(C)C)cc(F)c4c3=O)c2CO)cc(Nc2ccc(S(C)(=O)=O)cn2)c1=O` [Example I-18, 6-tert-Butyl-8-fluoro-2-{2-hydroxymethyl-3-[5-(5-methanesulfonyl-pyridin-2-ylamino)-1-methyl-6-oxo-1,6-dihydro-pyridin-3-yl]-phenyl}-2H-phthalazin-1-one] came in with an IC50 of 0.011 µM.
As for `Cn1cc(-c2cccc(-n3ncc4cc(C(C)(C)C)cc(F)c4c3=O)c2CO)cc(Nc2ccc(OCCO)cn2)c1=O` [Example I-19], the IC50 amounted to 0.014 µM. The IC50 values of the last two compounds are within 1.5-fold of each other.
In turn, `Cn1cc(-c2cccc(-n3ncc4cc(C(C)(C)C)cc(F)c4c3=O)c2CO)cc(Nc2ccc(C(C)(C)C(=O)O)cn2)c1=O` [Example I-20, 2-(6-{5-[3-(6-tert-Butyl-8-fluoro-1-oxo-1H-phthalazin-2-yl)-2-hydroxymethyl-phenyl]-1-methyl-2-oxo-1,2-dihydro-pyridin-3-ylamino}-pyridin-3-yl)-2-methyl-propionic acid] yielded an IC50 of 0.041 µM.
The compound `Cn1cc(-c2cccc(-n3ncc4cc(C(C)(C)C)cc(F)c4c3=O)c2CO)cc(Nc2ccc(C(C)(C)C(=O)N3CCOCC3)cn2)c1=O` [Example I-21, 6-tert-Butyl-2-(3-{5-[5-(1,1-dimethyl-2-morpholin-4-yl-2-oxo-ethyl)-pyridin-2-ylamino]-1-methyl-6-oxo-1,6-dihydro-pyridin-3-yl}-2-hydroxymethyl-phenyl)-8-fluoro-2H-phthalazin-1-one] showed an IC50 of 0.011 µM.
The figure for `CN(C)C(=O)C(C)(C)c1ccc(Nc2cc(-c3cccc(-n4ncc5cc(C(C)(C)C)cc(F)c5c4=O)c3CO)cn(C)c2=O)nc1` [Example I-22, 2-(6-{5-[3-(6-tert-Butyl-8-fluoro-1-oxo-1H-phthalazin-2-yl)-2-hydroxymethyl-phenyl]-1-methyl-2-oxo-1,2-dihydro-pyridin-3-ylamino}-pyridin-3-yl)-N,N-dimethyl-isobutyramide] is 0.014 µM; for `Cn1ccc(Nc2cc(-c3cccc(-n4ncc5cc(C(C)(C)C)cc(F)c5c4=O)c3CO)cn(C)c2=O)nc1=O` [Example I-23, 6-tert-Butyl-8-fluoro-2-{2-hydroxymethyl-3-[1-methyl-5-(1-methyl-2-oxo-1,2-dihydro-pyrimidin-4-ylamino)-6-oxo-1,6-dihydro-pyridin-3-yl]-phenyl}-2H-phthalazin-1-one] it is 0.392 µM.
Regarding `Cn1cc(-c2cccc(-n3ncc4cc(C(C)(C)C)cc(F)c4c3=O)c2CO)cc(Nc2ccc(CO)cn2)c1=O` [Example I-26, 6-tert-Butyl-8-fluoro-2-{2-hydroxymethyl-3-[5-(5-hydroxymethyl-pyridin-2-ylamino)-1-methyl-6-oxo-1,6-dihydro-pyridin-3-yl]-phenyl}-2H-phthalazin-1-one], the concentration for half-maximal inhibition (IC50) was determined as 0.091 µM.
As to `Cc1c(-c2cc(Nc3ccc(N4CCN(C)CC4)cn3)c(=O)n(C)c2)cccc1-n1ncc2cc(C(C)(C)C)cc(F)c2c1=O` [Example I-28, 6-tert-Butyl-8-fluoro-2-(2-methyl-3-{1-methyl-5-[5-(4-methyl-piperazin-1-yl)-pyridin-2-ylamino]-6-oxo-1,6-dihydro-pyridin-3-yl}-phenyl)-2H-phthalazin-1-one], half-maximal inhibition (IC50) required 0.181 µM.
`CCOCCNC(=O)C(C)(C)c1ccc(Nc2cc(-c3cccc(-n4ncc5cc(C(C)(C)C)cc(F)c5c4=O)c3CO)cn(C)c2=O)nc1` [Example I-29, 2-(6-{5-[3-(6-tert-Butyl-8-fluoro-1-oxo-1H-phthalazin-2-yl)-2-hydroxymethyl-phenyl]-1-methyl-2-oxo-1,2-dihydro-pyridin-3-ylamino}-pyridin-3-yl)-N-(2-ethoxy-ethyl)-isobutyramide]: the IC50 is 0.03 µM.
As for `CN1CC(Oc2ccc(Nc3cc(-c4cccc(-n5ncc6cc(C(C)(C)C)cc(F)c6c5=O)c4CO)cn(C)c3=O)nc2)C1` [Example I-30, 6-tert-Butyl-8-fluoro-2-(2-hydroxymethyl-3-{1-methyl-5-[5-(1-methyl-azetidin-3-yloxy)-pyridin-2-ylamino]-6-oxo-1,6-dihydro-pyridin-3-yl}-phenyl)-2H-phthalazin-1-one], half-maximal inhibition (IC50) was put at 0.01 µM.
As to `CNC(=O)C(C)(C)c1ccc(Nc2cc(-c3cccc(-n4ncc5cc(C(C)(C)C)cc(F)c5c4=O)c3CO)cn(C)c2=O)nc1` [Example I-32, 2-(6-{5-[3-(6-tert-Butyl-8-fluoro-1-oxo-1H-phthalazin-2-yl)-2-hydroxymethyl-phenyl]-1-methyl-2-oxo-1,2-dihydro-pyridin-3-ylamino}-pyridin-3-yl)-N-methyl-isobutyramide], the IC50 came out at 0.034 µM.
For `CCc1ccc(Nc2cc(-c3cccc(-n4ncc5cc(C(C)(C)C)cc(F)c5c4=O)c3CO)cn(C)c2=O)nc1` [Example I-33, 6-tert-Butyl-2-{3-[5-(5-ethyl-pyridin-2-ylamino)-1-methyl-6-oxo-1,6-dihydro-pyridin-3-yl]-2-hydroxymethyl-phenyl}-8-fluoro-2H-phthalazin-1-one], the IC50 is 0.218 µM.
In the case of `Cn1cc(-c2cccc(-n3ncc4cc(C(C)(C)C)cc(F)c4c3=O)c2CO)cc(Nc2ccc(C(=O)O)cn2)c1=O` [Example I-34, 6-{5-[3-(6-tert-Butyl-8-fluoro-1-oxo-1H-phthalazin-2-yl)-2-hydroxymethyl-phenyl]-1-methyl-2-oxo-1,2-dihydro-pyridin-3-ylamino}-nicotinic acid] it was 0.258 µM.
Compound `Cn1cc(-c2cccc(-n3ncc4cc(C(C)(C)C)cc(F)c4c3=O)c2CO)cc(Nc2ccc(C(C)(C)N)cn2)c1=O` [Example I-35, 2-(3-{5-[5-(1-Amino-1-methyl-ethyl)-pyridin-2-ylamino]-1-methyl-6-oxo-1,6-dihydro-pyridin-3-yl}-2-hydroxymethyl-phenyl)-6-tert-butyl-8-fluoro-2H-phthalazin-1-one] yielded an IC50 of 0.028 µM.
In the case of `CC(O)c1ccc(Nc2cc(-c3cccc(-n4ncc5cc(C(C)(C)C)cc(F)c5c4=O)c3CO)cn(C)c2=O)nc1` (stereo not drawn) [Example I-36, 6-tert-Butyl-8-fluoro-2-(3-{5-[5-(1-hydroxy-ethyl)-pyridin-2-ylamino]-1-methyl-6-oxo-1,6-dihydro-pyridin-3-yl}-2-hydroxymethyl-phenyl)-2H-phthalazin-1-one], the IC50 amounted to 0.059 µM.
`CCn1ccc(Nc2cc(-c3cccc(-n4ncc5cc(C(C)(C)C)cc(F)c5c4=O)c3CO)cn(C)c2=O)nc1=O` [Example I-37, 6-tert-Butyl-2-{3-[5-(1-ethyl-2-oxo-1,2-dihydro-pyrimidin-4-ylamino)-1-methyl-6-oxo-1,6-dihydro-pyridin-3-yl]-2-hydroxymethyl-phenyl}-8-fluoro-2H-phthalazin-1-one] returned an IC50 of 0.219 µM. This IC50 is about 3.7-fold higher than that of the compound before.
`CC(C)n1ccc(Nc2cc(-c3cccc(-n4ncc5cc(C(C)(C)C)cc(F)c5c4=O)c3CO)cn(C)c2=O)nc1=O` [Example I-38, 6-tert-Butyl-8-fluoro-2-{2-hydroxymethyl-3-[5-(1-isopropyl-2-oxo-1,2-dihydro-pyrimidin-4-ylamino)-1-methyl-6-oxo-1,6-dihydro-pyridin-3-yl]-phenyl}-2H-phthalazin-1-one]: the IC50 came out at 0.067 µM.
Consider `COCCNCc1ccc(Nc2cc(-c3cccc(-n4ncc5cc(C(C)(C)C)cc(F)c5c4=O)c3CO)cn(C)c2=O)nc1` [Example I-39, 6-tert-Butyl-8-fluoro-2-[2-hydroxymethyl-3-(5-{5-[(2-methoxy-ethylamino)-methyl]-pyridin-2-ylamino}-1-methyl-6-oxo-1,6-dihydro-pyridin-3-yl)-phenyl]-2H-phthalazin-1-one], for which the IC50 came out at 0.008 µM.
